{
  "source": "patent US20060188529A1",
  "about": "(priority 2004, published 2006)",
  "origin": "cited, not measured here",
  "system": "apo EKO mice",
  "key": {"[1]": {"settings": "fenofibrate added to phytosterols"}},
  "data": [
    {"smiles": "CC(C)OC(=O)C(C)(C)Oc1ccc(C(=O)c2ccc(Cl)cc2)cc1", "note": "[fenofibrate, 2-[4-(4-chlorobenzoyl)phenoxy]-2-methyl-propanoic acid, 1-methylethyl ester]", "values": [
      {"measurement": "effect on plasma triglyceride levels", "setting": "combination of fenofibrate to phytosterols", "value": "no effect"},
      {"measurement": "decrease of HDL cholesterol concentrations", "setting": "[1]", "value": 50, "unit": "%"},
      {"measurement": "increase of plasma total cholesterol levels", "setting": "[1]", "value": "> 50", "unit": "%"}
    ]}
  ]
}
